Literature values as cited in patent US20020182585A1, “Combination and method using EDTA, cystine, zinc and selenium for anti-thrombin effect and for anti-platelet aggregation and measurement of efficacy” (priority 2001, published 2002).

Conditions: EDTA binding of the metal cation; adapted from Schwartzenbach, 1957

Row | SMILES | Stability Constant Log K
1 | [Ni+2] [Ni^++] | 18.0
2 | [Hg+2] [Hg^++] | 21.8
3 | [Pb+2] [Pb^++] | 18.5
4 | [Co+2] [Co^++] | 16.3
5 | [Cd+2] [Cd^++] | 16.5
